The record followed here is patent EP0549040A1, “Methods of making 4" derivatives of 9-deoxo-8a-aza-8a-alkyl-8a-homoerythromycin A” (MERCK & CO. INC., priority 1991, dated 1993).

What all share (assay): liquid turbidimetric microtiter MIC determination in broth media
What all share (format): cell-based

For test [1], the system named is Enterobacter cloacae CL 4298. The source says:
(§1) The antibacterial activities of the compounds of Examples 8 and 10 against a panel of aerobic Gram positive and negative bacteria is shown in the following Table. The assay employs a liquid turbidimetric microtiter method for the determination of the minimum inhibitory concentration (MIC) in broth media. […] The MIC is generally not an absolute value but rather a concentration range that falls within a two-fold dilution limit. Generally twelve two-fold dilutions of the test compound are employed with the initial concentration set at 128 mcg/ml.

The test system of test [2] is Enterococcus faecalis MB 5407.
Source text: as §1

Another test deals with Escherichia coli MB 2884.
Source text: as §1

Test [3] deals with Haemophilus influenzae AT 43163.
Source text: as §1

Test [4] has as its system Haemophilus influenzae MB 5363.
Source text: as §1

In test [5] the test system is Klebsiella pneumoniae MB 4005.
Source text: as §1

For test [6], the system named is Staphylococcus aureus MB 2865.
Source text: as §1

For test [7], the system named is Staphylococcus epidermidis MB 5414.
Source text: as §1

In test [8] the test system is Streptococcus pneumoniae CL 2883.
Source text: as §1

Test [9] deals with Streptococcus pyogenes MB 2874.
Source text: as §1

Test [10] relates to Enterococcus faecium MB 5416. As to conditions: MB5416, Table I.
Source text: as §1

The test system of a further test is Escherichia coli MB 4926. As to conditions: MB4926, Table I.
Source text: as §1

Test [11] has as its system Pseudomonas stutzeri MB 1231. As to conditions: Stutzerimonas stutzeri, MB1231, Table I.
Source text: as §1

Test [12] concerns Staphylococcus haemolyticus MB 5412. As to conditions: MB5412, Table I.
Source text: as §1

Test [13] deals with Steptococcus viridans CL 2943. The settings on record: Table I.
Source text: as §1

The test system of test [14] is Streptococcus agalactiae CL 1343. The settings on record: CL1343, Table I.
Source text: as §1

Test [15] has as its system Streptococcus pyogenes MB 54061. As to conditions: MB54061, Table I.
Source text: as §1

Setting [16] is: MB2884, Table II, MIC, read-out: In vitro Activity.
[17] abbreviates: MB5407, Table I, Enterococcus faecalis MB 5407, read-out: MIC Values.
The mark [18] stands for this setting: MB2884, Table I, read-out: MIC Values.
[19] abbreviates: MB4005, Table I, Klebsiella pneumoniae MB 4005, read-out: MIC Values.
The mark [20] stands for this setting: MB2865, Table I, Staphylococcus aureus MB 2865, read-out: MIC Values.
Setting [21] is: MB5414, Table I, Staphylococcus epidermidis MB 5414, read-out: MIC Values.
[22] abbreviates: CL2883, Table I, Streptococcus pneumoniae CL 2883, read-out: MIC Values.
The mark [23] stands for this setting: MB2874, Table I, Streptococcus pyogenes MB 2874, read-out: MIC Values.
Setting [24] is: CL4298, Table II, MIC, Enterobacter cloacae CL 4298, read-out: In vitro Activity.
Where [25] appears, read: MB5407, Table II, MIC, Enterococcus faecalis MB 5407, read-out: In vitro Activity.
The mark [26] stands for this setting: AT43163, Table II, MIC, Haemophilus influenzae AT 43163, read-out: In vitro Activity.
Where [27] appears, read: MB5363, Table II, MIC, Haemophilus influenzae MB 5363, read-out: In vitro Activity.
Setting [28] is: MB4005, Table II, MIC, Klebsiella pneumoniae MB 4005, read-out: In vitro Activity.
The mark [29] stands for this setting: MB2865, Table II, MIC, Staphylococcus aureus MB 2865, read-out: In vitro Activity.
Setting [30] is: MB5414, Table II, MIC, Staphylococcus epidermidis MB 5414, read-out: In vitro Activity.
The mark [31] stands for this setting: CL2883, Table II, MIC, Streptococcus pneumoniae CL 2883, read-out: In vitro Activity.
[32] abbreviates: MB2874, Table II, MIC, Streptococcus pyogenes MB 2874, read-out: In vitro Activity.

≈ marks a conversion by molar mass, not a printed value. Where two headings read alike, the source gives them in different places.

Take “4''-epi-9-deoxo-8a-aza-8a-methyl-8a-homoerythromycin A [Example 15]”: the “In vitro Activity” value in test [1] (Table II, MIC, Enterobacter cloacae CL 4298) came to 0.5 µg/mL; in test [2] (Table II, MIC, Enterococcus faecalis MB 5407), 1 µg/mL; in the test on Escherichia coli MB 2884 (Table II, MIC), 1 µg/mL; in test [3] (Table II, MIC, Haemophilus influenzae AT 43163), 0.5 µg/mL; in test [4] (Table II, MIC, Haemophilus influenzae MB 5363), 0.5 µg/mL; in [5] (Table II, MIC, Klebsiella pneumoniae MB 4005), 1 µg/mL. Also, the “In vitro Activity” value in [6] (Table II, MIC, Staphylococcus aureus MB 2865) was 0.5 µg/mL; in test [7] (Table II, MIC, Staphylococcus epidermidis MB 5414), 0.25 µg/mL; in [8] (Table II, MIC, Streptococcus pneumoniae CL 2883), “≦0.06 mcg/ml”; in [9] (Table II, MIC, Streptococcus pyogenes MB 2874), “≦0.06 mcg/ml”.

For the molecule `CC[C@H]1OC(=O)[C@H](C)[C@@H](O[C@H]2C[C@@](C)(OC)[C@@H](O)[C@H](C)O2)[C@H](C)[C@@H](O[C@@H]2O[C@H](C)C[C@H](N(C)C)[C@H]2O)[C@](C)(O)C[C@@H](C)C(=O)[C@H](C)[C@@H](O)[C@]1(C)O` [Erythromycin A, erythromycin A], the MIC in test [1] (Enterobacter cloacae, CL4298, read-out: In vitro Activity) came out at 16 µg/mL (≈ 21.8 µM); in [2] (Enterococcus faecalis, MB5407, read-out: In vitro Activity), 1 µg/mL (≈ 1.36 µM); in the test with Escherichia coli MB 2884 (setting [16]), 16 µg/mL (≈ 21.8 µM); in [3] (Haemophilus influenzae, AT43163, read-out: In vitro Activity), 2 µg/mL (≈ 2.73 µM); in [4] (Haemophilus influenzae, MB5363, read-out: In vitro Activity), 2 µg/mL (≈ 2.73 µM); in test [5] (Klebsiella pneumoniae, MB4005, read-out: In vitro Activity), 32 µg/mL (≈ 43.6 µM). Further, the MIC in [6] (Staphylococcus aureus, MB2865, read-out: In vitro Activity) is 0.12 µg/mL (≈ 0.164 µM); in [7] (Staphylococcus epidermidis, MB5414, read-out: In vitro Activity), 0.12 µg/mL (≈ 0.164 µM); in test [8] (Streptococcus pneumoniae, CL2883, read-out: In vitro Activity), at most 0.06 µg/mL; in [9] (Streptococcus pyogenes, MB2874, read-out: In vitro Activity) it was at most 0.06 µg/mL.

Consider `CC[C@H]1OC(=O)[C@H](C)[C@@H](O[C@H]2C[C@@](C)(OC)[C@@H](O)[C@H](C)O2)[C@H](C)[C@@H](O[C@@H]2O[C@H](C)C[C@H](N(C)C)[C@H]2O)[C@](C)(O)C[C@@H](C)NC[C@H](C)[C@@H](O)[C@]1(C)O` [Example 9, 9-Deoxo-8a-aza-8a-homoerythromycin A], for which the MIC in [2] (setting [17]) is 8 µg/mL (≈ 10.9 µM); in test [10], 0.25 µg/mL (≈ 0.34 µM); with Escherichia coli MB 2884 (setting [18]) it was 4 µg/mL (≈ 5.44 µM); in the test with Escherichia coli MB 4926, 2 µg/mL (≈ 2.72 µM); in [5] (setting [19]), 8 µg/mL (≈ 10.9 µM); in test [11] it was at most 0.06 µg/mL. Also, the MIC is 0.5 µg/mL (≈ 0.68 µM) in test [6] (setting [20]); 1 µg/mL (≈ 1.36 µM) in test [7] (setting [21]); 0.5 µg/mL (≈ 0.68 µM) in [12]; 8 µg/mL (≈ 10.9 µM) in test [13]; at most 0.06 µg/mL in [14]; at most 0.06 µg/mL in [8] (setting [22]). Besides, the values for the MIC in test [9] (setting [23]) and in test [15] were at most 0.06 µg/mL and 128 µg/mL (≈ 174 µM), respectively.

As for `CC[C@H]1OC(=O)[C@H](C)[C@@H](O[C@H]2C[C@@](C)(OC)[C@@H](O)[C@H](C)O2)[C@H](C)[C@@H](O[C@@H]2O[C@H](C)C[C@H](N(C)C)[C@H]2O)[C@](C)(O)C[C@@H](C)N(C)C[C@H](C)[C@@H](O)[C@]1(C)O` [Example 10, 9-Deoxo-8a-aza-8a-methyl-8a-homoerythromycin A], the MIC in test [2] (setting [17]) is 4 µg/mL (≈ 5.34 µM); in test [10], 0.25 µg/mL (≈ 0.334 µM); with Escherichia coli MB 2884 (setting [18]), 1 µg/mL (≈ 1.34 µM); against Escherichia coli MB 4926, 0.06 µg/mL (≈ 0.0801 µM); in [5] (setting [19]), 2 µg/mL (≈ 2.67 µM); in test [11] it was at most 0.06 µg/mL. Besides, the MIC in [6] (setting [20]) is 0.5 µg/mL (≈ 0.668 µM); in test [7] (setting [21]), 1 µg/mL (≈ 1.34 µM); in [12], 0.5 µg/mL (≈ 0.668 µM); in test [13] it was 1 µg/mL (≈ 1.34 µM); in test [14], at most 0.06 µg/mL; in test [8] (setting [22]), at most 0.06 µg/mL. Further, the MIC is at most 0.06 µg/mL in test [9] (setting [23]) and 128 µg/mL (≈ 171 µM) in test [15].

As for `CC[C@H]1OC(=O)[C@H](C)[C@@H](O[C@H]2C[C@@](C)(OC)C(N)[C@H](C)O2)[C@H](C)[C@@H](O[C@@H]2O[C@H](C)C[C@H](N(C)C)[C@H]2O)[C@](C)(O)C[C@@H](C)N(C)C[C@H](C)[C@@H](O)[C@]1(C)O` (stereo partly drawn) [Example 17, 4''-Deoxy-4''-amino-9-deoxo-8a-aza-8a-methyl-8a-homoerythromycin A], the MIC was at most 0.06 µg/mL in [1] (setting [24]); 4 µg/mL (≈ 5.35 µM) in test [2] (setting [25]); 0.12 µg/mL (≈ 0.16 µM) with Escherichia coli MB 2884 (setting [16]); 0.25 µg/mL (≈ 0.334 µM) in test [3] (setting [26]); 0.5 µg/mL (≈ 0.668 µM) in [4] (setting [27]); 0.12 µg/mL (≈ 0.16 µM) in test [5] (setting [28]). Moreover, the MIC in [6] (setting [29]) was 1 µg/mL (≈ 1.34 µM); in test [7] (setting [30]) it was 0.5 µg/mL (≈ 0.668 µM); in test [8] (setting [31]), at most 0.06 µg/mL; in [9] (setting [32]), at most 0.06 µg/mL.

As for `CC[C@H]1OC(=O)[C@H](C)[C@@H](O[C@H]2C[C@@](C)(OC)[C@@H](N)[C@H](C)O2)[C@H](C)[C@@H](O[C@@H]2O[C@H](C)C[C@H](N(C)C)[C@H]2O)[C@](C)(O)C[C@@H](C)N(C)C[C@H](C)[C@@H](O)[C@]1(C)O` [Example 19, 4''-Deoxy-4''-(S) - amino-9-deoxo-8a-aza-8a-methyl-8a-homoerythromycin A], the MIC was at most 0.06 µg/mL in test [1] (setting [24]); 2 µg/mL (≈ 2.67 µM) in [2] (setting [25]); 0.12 µg/mL (≈ 0.16 µM) in the test on Escherichia coli MB 2884 (setting [16]); 0.25 µg/mL (≈ 0.334 µM) in test [3] (setting [26]); 0.25 µg/mL (≈ 0.334 µM) in [4] (setting [27]); 0.12 µg/mL (≈ 0.16 µM) in test [5] (setting [28]). Further, the MIC in [6] (setting [29]) was 1 µg/mL (≈ 1.34 µM); in test [7] (setting [30]) it was 0.51 µg/mL (≈ 0.682 µM); in [8] (setting [31]), at most 0.06 µg/mL; in [9] (setting [32]), at most 0.06 µg/mL.

For the molecule `CC[C@H]1OC(=O)[C@H](C)[C@@H](O[C@H]2C[C@@](C)(OC)[C@H](N)[C@H](C)O2)[C@H](C)[C@@H](O[C@@H]2O[C@H](C)C[C@H](N(C)C)[C@H]2O)[C@](C)(O)C[C@@H](C)N(C)C[C@H](C)[C@@H](O)[C@]1(C)O` [Example 20, 4''-Deoxy-4''-(R) - amino-9-deoxo-8a-aza-8a-methyl-8a-homoerythromycin A], the MIC is 0.12 µg/mL (≈ 0.16 µM) in test [1] (setting [24]); 2 µg/mL (≈ 2.67 µM) in test [2] (setting [25]); 0.25 µg/mL (≈ 0.334 µM) with Escherichia coli MB 2884 (setting [16]); 0.25 µg/mL (≈ 0.334 µM) in [3] (setting [26]); 0.5 µg/mL (≈ 0.668 µM) in [4] (setting [27]); 0.25 µg/mL (≈ 0.334 µM) in test [5] (setting [28]). Moreover, the MIC was 1 µg/mL (≈ 1.34 µM) in [6] (setting [29]), 0.5 µg/mL (≈ 0.668 µM) in test [7] (setting [30]), at most 0.06 µg/mL in test [8] (setting [31]) and at most 0.06 µg/mL in test [9] (setting [32]).
